# Biological target: T1, Human CaV2.2 channels (Homo sapiens, UniProt Q00975)
# T1 construct: expressed in transfected cells; also stably expressing Kir2.3)
# Assay: Fluorescent assay for CaV2.2 channels using potassium depolarization to induce channel opening (FLIPR, Fluo 4)
# Assay type: cell-based
# Settings: 3 μM test compound; 30 mM KCl alternative assay buffer (inactivated channel state); HEK293 cells; read-out: %-Inhib (CaV2.2) @3 μM @30 mM KCl
# Source text: In the process, the Ca^2+ influx is quantified in the FLIPR assay with the aid of a Ca^2+-sensitive dye (type Fluo-4, Molecular Probes Europe BV, Leiden, the Netherlands) in a fluorescent imaging plate reader (FLIPR 3, Molecular Devices, Sunnyvale, USA), as described hereinafter.
# 2. Assay Descriptions and Biological Data: 2.1 Fluorescent Assay for CaV2.2 Channels Using Potassium Depolarization to Induce Channel Opening
# Human CaV2.2 channels were stably expressed in HEK293 cells together with alpha2-delta and beta subunits of voltage gated calcium channels. In addition, an inwardly rectifying potassium channel (Kir2.3) was stably expressed in these cells to augment control of the cell membrane potential by the concentration of extracellular potassium ions. Raise of the extracellular potassium concentration leads to depolarization of the membrane potential and thus regulates the voltage dependent state of CaV2.2 channels. For preparation, cells were seeded in black poly-D-lysine coated 96-well plates (Becton Dickinson, Biocoat 4640) in 100 μL medium [500 mL DMEM/F-12 plus Glutamax (Invitrogen 31331-093) plus 5.5 mL MEM NEAA 100× (Invitrogen 11140-035) plus 50 mL FBS decomplemented (Invitrogen 10270-106) plus 200 μg/mL Geneticin (Invitrogen 10131-027) plus 50 μg/mL Hygromycin B (Invitrogen 10687-010) plus 2 μg/mL Blasticidin (anti-bl5b Invivo-Gen) plus 0.2 μg/mL Puromycin (A 11138-03)] at a cell density of 30.000 cells per well. Plates were incubated at 37° C. (5% CO2) for 20 to 23 h. On the day of experiment medium was discarded and cells were loaded with Fluo 4 by addition of 100 μL of basic assay buffer (10 mM HEPES, 1 mM KCl, 149 mM NaCl, 0.8 mM CaC2, 1.7 mM MgCl2, 10 mM Glucose, 0.1% BSA. pH 7.4) containing 2 μM Fluo 4 (Molecular Probes; F-14201), 0.01% pluronic acid (Molecular Probes; P-6866) and 2.5 mM probenecid (Molecular Probes; P36400). Cells were incubated in the dark at 25° C. for 60 min. Then dye containing buffer was discarded and 100 μL basic (1 mM KCl) or alternative (30 mM KCl) assay buffer was added. The alternative assay buffer contained altered concentrations of KCl (30 mM) and NaCl (120 mM) and was used in order to promote the inactivated channel state. After that 25 μL of basic or alternative assay buffer with or without test compound were added and cells were incubated again in the dark at 25° C. for 15 min. Fluorescence intensity was measured on a FLIPR 3 instrument (Molecular Devices Corp., Sunnyvale, Calif.) with excitation at 480 nm and emission at 535 nm. After continuously reading fluorescence for 30 sec, 50 μL of basic assay buffer containing 210 mM KCl (NaCl omitted) were added for depolarization. Peak fluorescent signal intensity was determined and the amplitude of the peak signal, normalized to base line, was used to measure channel inhibition by test compounds.
# T1 sequence (Q00975 whole entry): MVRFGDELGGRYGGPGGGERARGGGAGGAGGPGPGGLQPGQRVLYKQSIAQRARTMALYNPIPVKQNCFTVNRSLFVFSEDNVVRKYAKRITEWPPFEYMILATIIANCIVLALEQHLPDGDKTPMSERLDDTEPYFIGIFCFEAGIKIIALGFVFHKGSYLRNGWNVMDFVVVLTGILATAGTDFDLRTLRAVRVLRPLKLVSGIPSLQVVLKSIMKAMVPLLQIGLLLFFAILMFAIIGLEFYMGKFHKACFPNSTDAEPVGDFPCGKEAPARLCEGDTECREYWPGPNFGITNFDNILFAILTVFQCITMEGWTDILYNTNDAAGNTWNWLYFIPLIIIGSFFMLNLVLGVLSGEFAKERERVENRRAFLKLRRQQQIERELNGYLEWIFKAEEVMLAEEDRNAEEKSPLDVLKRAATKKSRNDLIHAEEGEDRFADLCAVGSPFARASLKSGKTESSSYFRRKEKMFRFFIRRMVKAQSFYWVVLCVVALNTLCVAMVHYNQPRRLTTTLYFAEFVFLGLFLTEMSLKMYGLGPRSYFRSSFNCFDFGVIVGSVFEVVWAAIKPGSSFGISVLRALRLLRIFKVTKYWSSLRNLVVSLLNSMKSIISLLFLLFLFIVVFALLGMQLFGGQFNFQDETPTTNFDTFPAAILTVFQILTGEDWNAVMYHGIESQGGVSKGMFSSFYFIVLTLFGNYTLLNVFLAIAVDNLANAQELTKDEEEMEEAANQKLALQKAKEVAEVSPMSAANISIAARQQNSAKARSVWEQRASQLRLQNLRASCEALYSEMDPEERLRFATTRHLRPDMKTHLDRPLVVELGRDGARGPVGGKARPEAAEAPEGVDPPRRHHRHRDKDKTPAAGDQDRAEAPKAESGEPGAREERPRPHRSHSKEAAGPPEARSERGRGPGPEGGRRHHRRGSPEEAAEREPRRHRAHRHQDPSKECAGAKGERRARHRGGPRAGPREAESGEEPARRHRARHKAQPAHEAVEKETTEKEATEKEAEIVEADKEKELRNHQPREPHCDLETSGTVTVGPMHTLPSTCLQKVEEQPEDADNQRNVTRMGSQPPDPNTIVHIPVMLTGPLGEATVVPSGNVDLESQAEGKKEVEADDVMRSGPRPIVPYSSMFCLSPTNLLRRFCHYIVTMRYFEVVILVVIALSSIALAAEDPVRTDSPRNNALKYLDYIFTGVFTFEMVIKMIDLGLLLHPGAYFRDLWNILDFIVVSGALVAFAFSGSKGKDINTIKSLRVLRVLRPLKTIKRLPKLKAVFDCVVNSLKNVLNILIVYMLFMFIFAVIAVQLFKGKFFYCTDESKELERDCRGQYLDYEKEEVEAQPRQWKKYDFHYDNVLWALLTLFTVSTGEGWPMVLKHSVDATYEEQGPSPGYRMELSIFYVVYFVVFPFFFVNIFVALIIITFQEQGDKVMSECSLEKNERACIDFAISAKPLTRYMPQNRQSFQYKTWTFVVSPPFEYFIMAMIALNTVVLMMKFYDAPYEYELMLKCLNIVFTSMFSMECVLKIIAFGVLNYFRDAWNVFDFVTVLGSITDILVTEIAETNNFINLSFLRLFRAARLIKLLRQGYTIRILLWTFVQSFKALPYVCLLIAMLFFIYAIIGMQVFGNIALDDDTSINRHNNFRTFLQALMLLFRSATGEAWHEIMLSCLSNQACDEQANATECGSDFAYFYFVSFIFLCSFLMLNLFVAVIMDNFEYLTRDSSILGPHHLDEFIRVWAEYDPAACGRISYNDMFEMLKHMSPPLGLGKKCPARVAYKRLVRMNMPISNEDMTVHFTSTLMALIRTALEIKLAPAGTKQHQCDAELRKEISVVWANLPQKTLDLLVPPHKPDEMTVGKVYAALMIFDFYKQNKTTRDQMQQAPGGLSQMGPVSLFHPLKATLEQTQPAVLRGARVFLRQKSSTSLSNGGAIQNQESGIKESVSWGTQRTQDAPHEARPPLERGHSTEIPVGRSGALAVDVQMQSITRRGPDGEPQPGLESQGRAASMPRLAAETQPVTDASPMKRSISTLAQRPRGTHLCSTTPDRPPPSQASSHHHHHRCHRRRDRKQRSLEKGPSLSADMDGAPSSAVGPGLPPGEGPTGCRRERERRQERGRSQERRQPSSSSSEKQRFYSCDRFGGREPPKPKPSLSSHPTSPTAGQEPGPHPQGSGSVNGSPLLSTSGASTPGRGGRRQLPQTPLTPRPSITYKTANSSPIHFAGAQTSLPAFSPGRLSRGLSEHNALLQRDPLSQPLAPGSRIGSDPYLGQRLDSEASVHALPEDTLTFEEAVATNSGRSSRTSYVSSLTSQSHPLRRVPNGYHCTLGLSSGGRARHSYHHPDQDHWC
row,Compound,inhibition at 3 µM
1,"COc1cnc(-c2c(C)c(C(F)(F)F)n(Cc3ccccc3)c2C(=O)N(C)CC(C)(C)C)cn1 [Example 01, 1-benzyl-3-(5-methoxypyrazin-2-yl)-N,4-dimethyl-N-neopentyl-5-(trifluoromethyl)-1H-pyrrole-2-carboxamide]",75 to 95%
2,"COc1ccc(-c2c(C)c(C(F)(F)F)n(Cc3ccccc3)c2C(=O)N(C)CC(C)(C)C)cn1 [Example 02, 1-Benzyl-3-(6-methoxypyridin-3-yl)-N,4-dimethyl-N-neopentyl-5-(trifluoromethyl)-1H-pyrrole-2-carboxamide]",40 to 75%
3,"Cc1c(-c2ccc(O)nc2)c(C(=O)N(C)CC(C)(C)C)n(Cc2ccccc2)c1C(F)(F)F [Example 03, 1-Benzyl-3-(6-hydroxypyridin-3-yl)-N,4-dimethyl-N-neopentyl-5-(trifluoromethyl)-1H-pyrrole-2-carboxamide]",40 to 75%
4,"Cc1c(-c2cnn(C)c2)c(C(=O)N(C)CC(C)(C)C)n(Cc2ccccc2)c1C(F)(F)F [Example 04, 1-Benzyl-N,4-dimethyl-3-(1-methyl-1H-pyrazol-4-yl)-N-neopentyl-5-(trifluoromethyl)-1H-pyrrole-2-carboxamide]",> 95%
5,"COc1cnc(-c2c(C)c(C(F)(F)F)n(Cc3ccccc3)c2C(=O)N2CCOCC2)cn1 [Example 05, (1-Benzyl-3-(5-methoxypyrazin-2-yl)-4-methyl-5-(trifluoromethyl)-1H-pyrrol-2-yl)(morpholino)methanone]",40 to 75%
6,"COc1ccc(-c2c(C)c(C(F)(F)F)n(Cc3ccccc3)c2C(=O)N2CCOCC2)cn1 [Example 06, (1-Benzyl-3-(6-methoxypyridin-3-yl)-4-methyl-5-(trifluoromethyl)-1H-pyrrol-2-yl)(morpholino)methanone]",75 to 95%
7,"Cc1c(-c2cnn(C)c2)c(C(=O)N2CCOCC2)n(Cc2ccccc2)c1C(F)(F)F [Example 08, (1-Benzyl-4-methyl-3-(1-methyl-1H-pyrazol-4-yl)-5-(trifluoromethyl)-1H-pyrrol-2-yl)(morpholino)methanone]",40 to 75%
8,"Cc1c(-c2cn[nH]c2)c(C(=O)N(C)CC(C)(C)C)n(Cc2ccccc2)c1C(F)(F)F [Example 09, 1-Benzyl-N,4-dimethyl-N-neopentyl-3-(1H-pyrazol-4-yl)-5-(trifluoromethyl)-1H-pyrrole-2-carboxamide]",75 to 95%
9,"Cc1c(-c2cn[nH]c2)c(C(=O)N2CCOCC2)n(Cc2ccccc2)c1C(F)(F)F [Example 10, (1-Benzyl-4-methyl-3-(1H-pyrazol-4-yl)-5-(trifluoromethyl)-1H-pyrrol-2-yl)(morpholino)methanone]",40 to 75%
10,"Cc1c(-c2cncnc2)c(C(=O)N(C)CC(C)(C)C)n(Cc2ccccc2)c1C(F)(F)F [Example 11, 1-Benzyl-N-(2,2-dimethyl-propyl)-N,4-dimethyl-3-pyrimidin-5-yl-5-(trifluoromethyl)-1H-pyrrole-2-carboxylic acid amide]",75 to 95%
11,"COc1ncc(-c2c(C)c(C(F)(F)F)n(Cc3ccccc3)c2C(=O)N(C)CC(C)(C)C)cn1 [Example 12, 1-Benzyl-N-(2,2-dimethyl-propyl)-3-(2-methoxy-pyrimidin-5-yl)-N,4-dimethyl-5-(trifluoromethyl)-1H-pyrrole-2-carboxylic acid amide]",75 to 95%
12,"Cc1c(-c2ccc(Cl)s2)c(C(=O)N(C)CC(C)(C)C)n(Cc2ccccc2)c1C(F)(F)F [Example 13, 1-Benzyl-3-(5-chloro-thiophen-2-yl)-N-(2,2-dimethyl-propyl)-N,4-dimethyl-5-(trifluoromethyl)-1H-pyrrole-2-carboxylic acid amide]",75 to 95%
13,"COc1ncc(-c2c(C)c(C(F)(F)F)n(Cc3ccccc3)c2C(=O)N2CCOCC2)cn1 [Example 14, [1-Benzyl-3-(2-methoxy-pyrimidin-5-yl)-4-methyl-5-(trifluoromethyl)-1H-pyrrol-2-yl]-morpholin-4-yl-methanone]",40 to 75%
14,"Cc1c(-c2cncnc2)c(C(=O)N2CCOCC2)n(Cc2ccccc2)c1C(F)(F)F [Example 15, [1-Benzyl-4-methyl-3-pyrimidin-5-yl-5-(trifluoromethyl)-1H-pyrrol-2-yl]-morpholin-4-yl-methanone]",40 to 75%
15,"Cc1noc(C)c1-c1c(C)c(C(F)(F)F)n(Cc2ccccc2)c1C(=O)N(C)CC(C)(C)C [Example 16, 1-Benzyl-3-(3,5-dimethyl-isoxazol-4-yl)-N-(2,2-dimethyl-propyl)-N,4-dimethyl-5-(trifluoromethyl)-1H-pyrrole-2-carboxylic acid amide]",75 to 95%
16,"Cc1c(-c2ncc(C(F)(F)F)cc2F)c(C(=O)N(C)CC(C)(C)C)n(Cc2ccccc2)c1C(F)(F)F [Example 17, 1-Benzyl-N-(2,2-dimethyl-propyl)-3-[3-fluoro-5-(trifluoromethyl)-pyridin-2-yl]-N,4-dimethyl-5-(trifluoromethyl)-1H-pyrrole-2-carboxylic acid amide]",75 to 95%
17,"Cc1c(-c2ncc(Cl)cn2)c(C(=O)N(C)CC(C)(C)C)n(Cc2ccccc2)c1C(F)(F)F [Example 18, 1-Benzyl-3-(5-chloro-pyrimidin-2-yl)-N-(2,2-dimethyl-propyl)-N,4-dimethyl-5-(trifluoromethyl)-1H-pyrrole-2-carboxylic acid amide]",> 95%
18,"Cc1cc(C#N)ncc1-c1c(C)c(C(F)(F)F)n(Cc2ccccc2)c1C(=O)N(C)CC(C)(C)C [Example 19, 1-Benzyl-3-(6-cyano-4-methylpyridin-3-yl)-N,4-dimethyl-N-neopentyl-5-(trifluoromethyl)-1H-pyrrole-2-carboxamide]",75 to 95%
19,"Cc1cc(Cl)ncc1-c1c(C)c(C(F)(F)F)n(Cc2ccccc2)c1C(=O)N(C)CC(C)(C)C [Example 20, 1-Benzyl-3-(6-chloro-4-methyl-pyridin-3-yl)-N-(2,2-dimethyl-propyl)-N,4-dimethyl-5-(trifluoromethyl)-1H-pyrrole-2-carboxylic acid amide]",75 to 95%
20,"COc1cc(C)c(-c2c(C)c(C(F)(F)F)n(Cc3ccccc3)c2C(=O)N(C)CC(C)(C)C)cn1 [Example 21, 1-Benzyl-N-(2,2-dimethyl-propyl)-3-(6-methoxy-4-methyl-pyridin-3-yl)-N,4-dimethyl-5-(trifluoromethyl)-1H-pyrrole-2-carboxylic acid amide]",75 to 95%
21,"Cc1c(-c2ccc(Cl)nn2)c(C(=O)N(C)CC(C)(C)C)n(Cc2ccccc2)c1C(F)(F)F [Example 22, 1-Benzyl-3-(6-chloro-pyridazin-3-yl)-N-(2,2-dimethyl-propyl)-N,4-dimethyl-5-(trifluoromethyl)-1H-pyrrole-2-carboxylic acid amide]",> 95%
22,"Cc1noc(C)c1-c1c(C)c(C(F)(F)F)n(Cc2ccccc2)c1C(=O)N1CCOCC1 [Example 23, [1-Benzyl-3-(3,5-dimethyl-isoxazol-4-yl)-4-methyl-5-(trifluoromethyl)-1H-pyrrol-2-yl]-morpholin-4-yl-methanone]",75 to 95%
23,"Cc1c(-c2ncc(C(F)(F)F)cc2F)c(C(=O)N2CCOCC2)n(Cc2ccccc2)c1C(F)(F)F [Example 24, [1-Benzyl-3-[3-fluoro-5-(trifluoromethyl)-pyridin-2-yl]-4-methyl-5-(trifluoromethyl)-1H-pyrrol-2-yl]-morpholin-4-yl-methanone]",> 95%
24,"Cc1c(-c2ncc(Cl)cn2)c(C(=O)N2CCOCC2)n(Cc2ccccc2)c1C(F)(F)F [Example 25, [1-Benzyl-3-(5-chloro-pyrimidin-2-yl)-4-methyl-5-(trifluoromethyl)-1H-pyrrol-2-yl]-morpholin-4-yl-methanone]",> 95%
25,"Cc1cc(C#N)ncc1-c1c(C)c(C(F)(F)F)n(Cc2ccccc2)c1C(=O)N1CCOCC1 [Example 26, 5-[1-Benzyl-4-methyl-2-(morpholine-4-carbonyl)-5-(trifluoromethyl)-1H-pyrrol-3-yl]-4-methyl-pyridine-2-carbonitrile]",75 to 95%
